One may read the clearance as a measure of how efficiently the substance is removed, as volume per time. Low values mean inefficient removal, high ones efficient removal. Broadly, the half-life is the time in which the quantity being followed falls by half. In general, AUC(0-inf) refers to total exposure, with the tail of the curve extrapolated. The IC50 is the midpoint of a concentration-inhibition curve. As usually defined, the solubility is the concentration that dissolves in the medium under given conditions.

T1 sequence (P09874 whole entry): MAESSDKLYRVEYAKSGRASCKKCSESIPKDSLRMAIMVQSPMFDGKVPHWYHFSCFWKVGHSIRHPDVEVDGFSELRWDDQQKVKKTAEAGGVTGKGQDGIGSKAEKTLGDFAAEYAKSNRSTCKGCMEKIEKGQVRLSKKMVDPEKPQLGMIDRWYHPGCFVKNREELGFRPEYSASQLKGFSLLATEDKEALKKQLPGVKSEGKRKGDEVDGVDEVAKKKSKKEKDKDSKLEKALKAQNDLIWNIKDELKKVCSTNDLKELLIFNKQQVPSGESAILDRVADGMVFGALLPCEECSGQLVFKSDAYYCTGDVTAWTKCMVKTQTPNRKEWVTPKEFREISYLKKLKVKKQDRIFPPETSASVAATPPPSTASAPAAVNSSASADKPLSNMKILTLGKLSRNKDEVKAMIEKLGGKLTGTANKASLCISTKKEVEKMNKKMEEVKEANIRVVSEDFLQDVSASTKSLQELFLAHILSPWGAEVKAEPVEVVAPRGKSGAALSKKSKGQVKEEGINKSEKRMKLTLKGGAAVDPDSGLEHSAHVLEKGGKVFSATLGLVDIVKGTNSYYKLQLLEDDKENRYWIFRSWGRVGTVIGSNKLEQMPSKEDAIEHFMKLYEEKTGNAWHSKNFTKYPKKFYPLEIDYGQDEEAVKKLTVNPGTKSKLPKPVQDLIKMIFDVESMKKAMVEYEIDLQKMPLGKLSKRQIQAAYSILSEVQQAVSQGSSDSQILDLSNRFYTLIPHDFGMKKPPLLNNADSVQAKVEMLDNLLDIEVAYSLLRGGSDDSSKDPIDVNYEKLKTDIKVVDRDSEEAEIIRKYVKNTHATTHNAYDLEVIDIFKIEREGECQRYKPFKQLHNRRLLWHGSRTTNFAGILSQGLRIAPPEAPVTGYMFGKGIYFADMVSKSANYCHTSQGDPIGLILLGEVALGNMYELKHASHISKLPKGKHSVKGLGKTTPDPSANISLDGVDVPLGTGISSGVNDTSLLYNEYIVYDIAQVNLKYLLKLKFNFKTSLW

Test system in the first series: not listed separately
The series is described as follows: Clearance in Rattus norvegicus Sprague-Dawley (rat) at 5 mg/kg, iv. The arrangement: dose 5 mg/kg, route intravenous. Format: ADME, organism-based. Conditions: in vivo.
`CCCN1CCN(C(=O)c2ccc3[nH]c(=O)c4c(c3c2)CCSC4)CC1` showed a clearance of 63.3 mL/min/kg.

Test system in another series: not listed separately
The series is described as follows: Half life in Rattus norvegicus Sprague-Dawley (rat) at 5 mg/kg, iv. In kind it is ADME, organism-based. Further details: dose 5 mg/kg, route intravenous. Conditions: in vivo.
`CCCN1CCN(C(=O)c2ccc3[nH]c(=O)c4c(c3c2)CCSC4)CC1` showed a half-life of 84 min.

Test system in another series: not listed separately
In words: Half life in Homo sapiens (human) liver microsomes at 1 uM by LC/MS/MS analysis. In kind it is ADME.
Details: not given
Background: Microsomes from liver hold many membrane-bound enzymes, among them those of drug oxidation.
Regarding `O=C1CC2(CCCC2)CC(=O)N1CCCCN1CCN(c2ncccn2)CC1` [BUSPIRONE], the half-life at 1 µM was found to be 4 min.
For the compound `CC(C)CCN1CCN(C(=O)c2ccc3[nH]c(=O)c4c(c3c2)CCSC4)CC1`, the half-life at 1 µM turned out to be 15.9 min.
Turning to `O=C(c1ccc2[nH]c(=O)c3c(c2c1)CCSC3)N1CCN(C2CCCC2)CC1`, the half-life at 1 µM worked out at 14.5 min.
Regarding `CCCN1CCN(C(=O)c2ccc3[nH]c(=O)c4c(c3c2)CCSC4)CC1`, the half-life at 1 µM was determined as 41.7 min.

Test system in a further series: not listed separately
In words: AUC (0 to infinity) in Rattus norvegicus Sprague-Dawley (rat) at 5 mg/kg, iv. Conditions: plasma. The arrangement: time infinity, dose 5 mg/kg, route intravenous. In kind it is ADME, organism-based.
`CCCN1CCN(C(=O)c2ccc3[nH]c(=O)c4c(c3c2)CCSC4)CC1` had an AUC(0-inf) of 1300 ng·h/mL.

The next series addresses T1, Poly [ADP-ribose] polymerase 1 (Homo sapiens, UniProt P09874). The series is described as follows: Inhibition of PARP-1 (unknown origin) expressed in CHO-K1 cells assessed as depletion of NAD(P)H after 2 hr by CCK-8 assay. In kind it is cell-based.
Details: not given
Background: Tetrazolium assays rely on reduction of a dye to a coloured formazan, in cell work by metabolically active cells.
As to `O=C(NCCN1CCOCC1)c1ccc2[nH]c(=O)c3c(c2c1)CCSC3`, the ED50 is greater than 30000 nM.
In the case of `CCCC(C)N1CCN(C(=O)c2ccc3[nH]c(=O)c4c(c3c2)CCSC4)CC1` (configuration not stated), the ED50 turned out to be 460 nM.
With `CC(C)CCN1CCN(C(=O)c2ccc3[nH]c(=O)c4c(c3c2)CCSC4)CC1`, the ED50 was found to be 840 nM.
Consider `O=C(NCCN1CCCCC1)c1ccc2[nH]c(=O)c3c(c2c1)CCSC3`, for which the ED50 came out at 2810 nM.
Take `O=C(c1ccc2[nH]c(=O)c3c(c2c1)CCSC3)N1CCN(C2CCCCC2)CC1`: the ED50 amounted to 320 nM.
As for `O=C(c1ccc2[nH]c(=O)c3c(c2c1)CCSC3)N1CCN(CCc2ccccc2)CC1`, the ED50 turned out to be 2190 nM.
In the case of `CN1CCN(C(=O)c2ccc3[nH]c(=O)c4c(c3c2)CCSC4)CC1`, the ED50 turned out to be 2530 nM.
On to `O=C(c1ccc2[nH]c(=O)c3c(c2c1)CCSC3)N1CCNCC1`, for which the ED50 was greater than 30000 nM.
For the compound `CCN1CCN(C(=O)c2ccc3[nH]c(=O)c4c(c3c2)CCSC4)CC1`, the ED50 turned out to be 2000 nM.
On to `O=C(NCCN1CCN(c2ccccc2)CC1)c1ccc2[nH]c(=O)c3c(c2c1)CCSC3`, for which the ED50 amounted to 4020 nM.
As for `O=C(NCCN1CCN(c2ccncc2)CC1)c1ccc2[nH]c(=O)c3c(c2c1)CCSC3`, the ED50 was greater than 30000 nM.
Regarding `O=C(c1ccc2[nH]c(=O)c3c(c2c1)CCSC3)N1CCN(c2ccncc2)CC1`, the ED50 was greater than 30000 nM.
With `CCCCN1CCN(C(=O)c2ccc3[nH]c(=O)c4c(c3c2)CCSC4)CC1`, the ED50 stood at 770 nM.
For `NCCCCNC(=O)c1ccc2[nH]c(=O)c3c(c2c1)CCSC3`, the ED50 is greater than 30000 nM.
The same measure, in the same setting: as for `O=C(c1ccc2[nH]c(=O)c3c(c2c1)CCSC3)N1CCN(C2CCCC2)CC1`, the figure is 550 nM; as for `NCCNC(=O)c1ccc2[nH]c(=O)c3c(c2c1)CCSC3`, greater than 30000 nM; as for `O=C(c1ccc2[nH]c(=O)c3c(c2c1)CCSC3)N1CCN(C2CCCCCC2)CC1`, 500 nM.
`O=C(c1ccc2[nH]c(=O)c3c(c2c1)CCSC3)N1CCN(CCCC(F)(F)F)CC1`: the ED50 was 2410 nM.
In the case of `O=C(c1ccc2[nH]c(=O)c3c(c2c1)CCSC3)N1CCCCC1`, the ED50 worked out at 1260 nM.
With `O=C(NCCN1CCNCC1)c1ccc2[nH]c(=O)c3c(c2c1)CCSC3`, the ED50 is greater than 30000 nM.
With `NCCCNC(=O)c1ccc2[nH]c(=O)c3c(c2c1)CCSC3`, the ED50 is greater than 30000 nM.
As for `CCCCCCN1CCN(C(=O)c2ccc3[nH]c(=O)c4c(c3c2)CCSC4)CC1`, the ED50 came out at 2910 nM.
As to `CCCN1CCN(C(=O)c2ccc3[nH]c(=O)c4c(c3c2)CCSC4)CC1`, the ED50 stood at 540 nM.
In the case of `O=C(c1ccc2[nH]c(=O)c3c(c2c1)CCSC3)N1CCN(Cc2ccccc2)CC1`, the ED50 was found to be 2510 nM.
In the case of `CCCCCN1CCN(C(=O)c2ccc3[nH]c(=O)c4c(c3c2)CCSC4)CC1`, the ED50 worked out at 610 nM.
Still for that read-out and setting: as for `O=C(c1ccc2[nH]c(=O)c3c(c2c1)CCSC3)N1CCN(c2ccccc2)CC1`, the figure is 1290 nM.

The next series deals with T1, Poly [ADP-ribose] polymerase 1. In words: Inhibition of PARP-1 (unknown origin) assessed as inhibition of biotinylated poly(ADP-ribose) onto histone proteins after 30 min by colorimetry.
Details: not given
For `O=C(NCCN1CCOCC1)c1ccc2[nH]c(=O)c3c(c2c1)CCSC3`, the IC50 was 60 nM.
For `CCCC(C)N1CCN(C(=O)c2ccc3[nH]c(=O)c4c(c3c2)CCSC4)CC1` (configuration not stated), the IC50 worked out at 40 nM.
Turning to `CC(C)CCN1CCN(C(=O)c2ccc3[nH]c(=O)c4c(c3c2)CCSC4)CC1`, the 50% inhibitory concentration (IC50) is 65 nM.
As for `O=C(NCCN1CCCCC1)c1ccc2[nH]c(=O)c3c(c2c1)CCSC3`, the IC50 amounted to 58 nM.
Turning to `O=C(c1ccc2[nH]c(=O)c3c(c2c1)CCSC3)N1CCN(C2CCCCC2)CC1`, the 50% inhibitory concentration (IC50) is 68 nM.
As to `O=C(c1ccc2[nH]c(=O)c3c(c2c1)CCSC3)N1CCN(CCc2ccccc2)CC1`, the IC50 was 19 nM.
In the case of `CN1CCN(C(=O)c2ccc3[nH]c(=O)c4c(c3c2)CCSC4)CC1`, the IC50 amounted to 188 nM.
Take `O=C(c1ccc2[nH]c(=O)c3c(c2c1)CCSC3)N1CCNCC1`: the half-inhibitory concentration (IC50) worked out at 8 nM.
`CCOC(=O)c1ccc2[nH]c(=O)c3c(c2c1)CCSC3`: the IC50 came to 536 nM.
As for `CCN1CCN(C(=O)c2ccc3[nH]c(=O)c4c(c3c2)CCSC4)CC1`, the IC50 worked out at 47 nM.
The same measure, in the same setting: for `O=C(NCCN1CCN(c2ccccc2)CC1)c1ccc2[nH]c(=O)c3c(c2c1)CCSC3` the value was 166 nM; for `O=C(NCCN1CCN(c2ccncc2)CC1)c1ccc2[nH]c(=O)c3c(c2c1)CCSC3`, 44 nM.
Take `O=C(c1ccc2[nH]c(=O)c3c(c2c1)CCSC3)N1CCN(c2ccncc2)CC1`: the IC50 was determined as 20 nM.
The same measure, in the same setting: as for `CCCCN1CCN(C(=O)c2ccc3[nH]c(=O)c4c(c3c2)CCSC4)CC1`, the figure is 42 nM; as for `NCCCCNC(=O)c1ccc2[nH]c(=O)c3c(c2c1)CCSC3`, 27 nM.
Take `O=C(c1ccc2[nH]c(=O)c3c(c2c1)CCSC3)N1CCN(C2CCCC2)CC1`: the IC50 was 47 nM.
For the compound `NCCNC(=O)c1ccc2[nH]c(=O)c3c(c2c1)CCSC3`, the IC50 was 17 nM.
Same read-out and setting: as for `O=C(c1ccc2[nH]c(=O)c3c(c2c1)CCSC3)N1CCN(C2CCCCCC2)CC1`, the figure is 67 nM; as for `O=C(c1ccc2[nH]c(=O)c3c(c2c1)CCSC3)N1CCN(CCCC(F)(F)F)CC1`, 134 nM.
On the same count and under the same terms, for `O=C(c1ccc2[nH]c(=O)c3c(c2c1)CCSC3)N1CCCCC1` the value was 175 nM.
With `O=C(NCCN1CCNCC1)c1ccc2[nH]c(=O)c3c(c2c1)CCSC3`, the IC50 was found to be 36 nM.
As to `NCCCNC(=O)c1ccc2[nH]c(=O)c3c(c2c1)CCSC3`, the IC50 came out at 30 nM.
The same measure, in the same setting: as for `CCCCCCN1CCN(C(=O)c2ccc3[nH]c(=O)c4c(c3c2)CCSC4)CC1`, the figure is 94 nM; as for `CCCN1CCN(C(=O)c2ccc3[nH]c(=O)c4c(c3c2)CCSC4)CC1`, 45 nM.
Regarding `O=C(c1ccc2[nH]c(=O)c3c(c2c1)CCSC3)N1CCN(Cc2ccccc2)CC1`, the 50% inhibitory concentration (IC50) came to 187 nM.
Consider `CCCCCN1CCN(C(=O)c2ccc3[nH]c(=O)c4c(c3c2)CCSC4)CC1`, for which the half-maximal inhibitory concentration (IC50) worked out at 79 nM.
As to `O=C(O)c1ccc2[nH]c(=O)c3c(c2c1)CCSC3`, the IC50 stood at 78 nM.
As to `O=C(c1ccc2[nH]c(=O)c3c(c2c1)CCSC3)N1CCN(c2ccccc2)CC1`, the half-maximal inhibitory concentration (IC50) is 234 nM.

Test system in a further series: not listed separately
In words: Solubility of the compound in water. Format: physicochemical.
Details: not given
For the compound `CCCN1CCN(C(=O)c2ccc3[nH]c(=O)c4c(c3c2)CCSC4)CC1`, the solubility is greater than 1000 µg/mL.

These data come from ChEMBL document CHEMBL3046242, “Synthesis and evaluation of thiopyrano[3,4-c]quinoline-9-carboxamide derivatives as inhibitors of poly(ADP-ribose) polymerase-1 (PARP-1)” (Med Chem Res, 2012).
